Data on 17 molecules can be found in patent US9409922B2, “Imidazopyridine macrocycles as inhibitors of human immunodeficiency virus replication” (priority 2014, dated 2016).

One assay relates to NL-RLuc virus. In words: Inhibition of HIV replication: NL-RLuc reporter virus in MT-2 cells, luciferase readout. In kind it is cell-based. To be noted: Human immunodeficiency virus 1, MT2, 120 h, MT-2 cells infected with NL-RLuc virus, 5 days of incubation, 10% FBS, at least 2 experiments. An excerpt:
Inhibition of HIV Replication:
A recombinant NL-RLuc proviral clone was constructed in which a section of the nef gene from NL4-3 was replaced with the Renilla Luciferase gene. This virus is fully infectious and can undergo multiple cycles of replication in cell culture. In addition, the luciferous reporter provides a simple and easy method for quantitating the extent of virus growth and consequently, the antiviral activity of test compounds. The plasmid pNLRLuc contains the proviral NL-Rluc DNA cloned into pUC 18 at the PvuII site. The NL-RLuc virus was prepared by transfection of 293T cells with the plasmid pNLRLuc. Transfections were performed using the LipofectAMINE PLUS kit from Invitrogen (Carlsbad, Calif.) according to the manufacturer and the virus generated was titered in MT-2 cells. For susceptibility analyses, the titrated virus was used to infect MT-2 cells in the presence of compound, and after 5 days of incubation, cells were processed and quantitated for virus growth by the amount of expressed luciferase. Assay media was RPMI 1640 supplemented with 10% heat inactivated fetal bovine serum (FBS), 100 units/ml penicillin G/100 units/ml streptomycin, 10 mM HEPES buffer pH 7.55 and 2 mM L-glutamine. The results from at least 2 experiments were used to calculate the EC50 values. Luciferase was quantitated using the Dual Luciferase kit from Promega (Madison, Wis.). Susceptibility of viruses to compounds was determined by incubation in the presence of serial dilutions of the compound. The 50% effective concentration (EC50) was calculated by using the exponential form of the median effect equation where (Fa)=1/[1+(ED50/drug conc.)^m](Johnson V A, Byington R T. Infectivity Assay. In Techniques in HIV Research. ed. Aldovini A, Walker B D. 71-76. New York: Stockton Press. 1990).
Broadly, the EC50 is the midpoint of the concentration-response curve. For the molecule `Cc1cc2c(cc1F)-c1cccc(c1)-c1cn3c(c([C@H](OC(C)(C)C)C(=O)O)c(C)c(C)c3n1)N1CCC(C)(CC1)OCCCC[C@H](C)O2` [Example 30, (2S)-2-(tert-Butoxy)-2-[(22S)-17-fluoro-4,5,18,22,28-pentamethyl-21,27-dioxa-1,7,34-triazahexacyclo[26.2.2.1^6,^9.1^10,^14.0^2,^7.0^15,^20]tetratriaconta-2,4,6(34),8,10(33),11,13,15(20),16,18-decaen-3-yl]acetic acid], the EC50 was found to be 21 nM.
For the molecule `Cc1cc2c(cc1F)-c1cccc(c1)-c1nc3c(Br)c(C)c([C@H](OC(C)(C)C)C(=O)O)c(n3c1Cl)N1CCC(C)(CC1)OCCCC[C@H](C)O2` [Example 29, (2S)-2-[(22S)-5-Bromo-8-chloro-17-fluoro-4,18,22,28-tetramethyl-21,27-dioxa-1,7,34-triazahexacyclo[26.2.2.1^6,^9.1^10,^14.0^2,^7.0^15,^20]tetratriaconta-2,4,6(34),8,10(33),11,13,15(20),16,18-decaen-3-yl]-2-(tert-butoxy)acetic acid], the EC50 came to 30 nM.
Consider `Cc1c([C@H](OC(C)(C)C)C(=O)O)c2n3cc(nc3c1CO)-c1cccc(c1)-c1cc(F)ccc1O[C@@H](C)CCCCOC1(C)CCN2CC1` [Example 53, (2S)-2-(tert-Butoxy)-2-[(22S)-17-fluoro-5-(hydroxymethyl)-4,22,28-trimethyl-21,27-dioxa-1,7,34-triazahexacyclo[26.2.2.1^6,^9.1^10,^14.0^2,^7.0^15,^20]tetratriaconta-2,4,6(34),8,10(33),11,13,15(20),16,18-decaen-3-yl]acetic acid], for which the EC50 was found to be 8 nM.
Still for that read-out and setting: for `Cc1cc2c(cc1C)-c1cccc(c1)-c1nc3cc(C)c([C@H](OC(C)(C)C)C(=O)O)c(n3c1Cl)N1CCC(C)(CC1)OCCCC[C@H](C)O2` [Example 25, (2S)-2-(tert-Butoxy)-2-[(22S)-8-chloro-4,17,18,22,28-pentamethyl-21,27-dioxa-1,7,34-triazahexacyclo[26.2.2.1^6,^9.1^10,^14.0^2,^7.0^15,^20]tetratriaconta-2,4,6(34),8,10(33),11,13,15(20),16,18-decaen-3-yl]acetic acid] the value was 30 nM.
Still for that read-out and setting: for `Cc1cc2c(cc1F)-c1cccc(c1)-c1nc3cc(C)c([C@H](OC(C)(C)C)C(=O)O)c(n3c1Br)N1CCC(C)(CC1)OCCCC[C@H](C)O2` [Example 27, (2S)-2-[(22S)-8-Bromo-17-fluoro-4,18,22,28-tetramethyl-21,27-dioxa-1,7,34-triazahexacyclo[26.2.2.1^6,^9.1^10,^14.0^2,^7.0^15,^20]tetratriaconta-2,4,6(34),8,10(33),11,13,15(20),16,18-decaen-3-yl]-2-(tert-butoxy)acetic acid] the value was 13 nM.
On the same count and under the same terms, next, `Cc1cc2c(cc1F)-c1cccc(c1)-c1cn3c(c([C@H](OC(C)(C)C)C(=O)O)c(C)cc3n1)N1CCC(C)(CC1)OCCCC[C@H](C)O2` [Example 20, (2S)-2-(tert-Butoxy)-2-[(22S)-17-fluoro-4,18,22,28-tetramethyl-21,27-dioxa-1,7,34-triazahexacyclo[26.2.2.1^6,^9.1^10,^14.0^2,^7.0^15,^20]tetratriaconta-2,4,6(34),8,10(33),11,13,15(20),16,18-decaen-3-yl]acetic acid]: 11 nM.
The molecule `Cc1c([C@H](OC(C)(C)C)C(=O)O)c2n3cc(nc3c1C)-c1cccc(c1)-c1cc(F)cc(F)c1O[C@@H](C)CCCCOC1(C)CCN2CC1` [Example 45, (2S)-2-(tert-Butoxy)-2-[(22S)-17,19-difluoro-4,5,22,28-tetramethyl-21,27-dioxa-1,7,34-triazahexacyclo[26.2.2.1^6,^9.1^10,^14.0^2,^7.0^15,^20]tetratriaconta-2,4,6(34),8,10(33),11,13,15(20),16,18-decaen-3-yl]acetic acid] had an EC50 of 47 nM.
Same read-out and setting: for `Cc1cc2nc3cn2c(c1[C@H](OC(C)(C)C)C(=O)O)N1CCC(C)(CC1)OCCCC[C@H](C)Oc1ccc(F)cc1-c1cccc-3c1` [Example 10, (2S)-2-(tert-Butoxy)-2-[(22S)-17-fluoro-4,22,28-trimethyl-21,27-dioxa-1,7,34-triazahexacyclo[26.2.2.1^6,^9.1^10,^14.0^2,^7.0^15,^20]tetratriaconta-2,4,6(34),8,10(33),11,13,15(20),16,18-decaen-3-yl]acetic acid] the value was 4 nM.
Same read-out and setting: for `Cc1cc2nc3cn2c(c1[C@H](OC(C)(C)C)C(=O)O)N1CCC(C)(CC1)OCCCCCOc1ccc(F)cc1Cc1nc-3[nH]c1Cl` [Example 5] the value was 7 nM; for `Cc1c([C@H](OC(C)(C)C)C(=O)O)c2n3cc(nc3c1Br)-c1cccc(c1)-c1cccc(F)c1O[C@@H](C)CCCCOC1(C)CCN2CC1` [Example 36, (2S)-2-[(22S)-5-Bromo-19-fluoro-4,22,28-trimethyl-21,27-dioxa-1,7,34-triazahexacyclo[26.2.2.1^6,^9.1^10,^14.0^2,^7.0^15,^20]tetratriaconta-2,4,6(34),8,10(33),11,13,15(20),16,18-decaen-3-yl]-2-(tert-butoxy)acetic acid], 10 nM; for `Cc1cc2nc3cn2c(c1[C@H](OC(C)(C)C)C(=O)O)N1CCC(C)(CC1)OCCCC[C@H](C)Oc1c(F)cccc1-c1cccc-3c1` [Example 35, (2S)-2-(tert-Butoxy)-2-[(22S)-19-fluoro-4,22,28-trimethyl-21,27-dioxa-1,7,34-triazahexacyclo[26.2.2.1^6,^9.1^10,^14.0^2,^7.0^15,^20]tetratriaconta-2,4,6(34),8,10(33),11,13,15(20),16,18-decaen-3-yl]acetic acid], 7 nM.
Still for that read-out and setting: for `CCc1c(C)c([C@H](OC(C)(C)C)C(=O)O)c2n3cc(nc13)-c1cccc(c1)-c1cc(F)c(F)cc1O[C@@H](C)CCCCOC1(C)CCN2CC1` [Example 57, (2S)-2-(tert-Butoxy)-2-[(22S)-5-ethyl-17,18-difluoro-4,22,28-trimethyl-21,27-dioxa-1,7,34-triazahexacyclo[26.2.2.1^6,^9.1^10,^14.0^2,^7.0^15,^20]tetratriaconta-2,4,6(34),8,10(33),11,13,15(20),16,18-decaen-3-yl]acetic acid] the value was 13 nM; for `Cc1ccc2c(c1)-c1cccc(c1)-c1nc3cc(C)c([C@H](OC(C)(C)C)C(=O)O)c(n3c1Cl)N1CCC(C)(CC1)OCCCC[C@H](C)O2` [Example 22, (2S)-2-(tert-Butoxy)-2-[(22S)-8-chloro-4,17,22,28-tetramethyl-21,27-dioxa-1,7,34-triazahexacyclo[26.2.2.1^6,^9.1^10,^14.0^2,^7.0^15,^20]tetratriaconta-2,4,6(34),8,10(33),11,13,15(20),16,18-decaen-3-yl]acetic acid], 24 nM.
Molecule `Cc1c([C@H](OC(C)(C)C)C(=O)O)c2n3cc(nc3c1C)-c1cccc(c1)-c1c(ccc(F)c1F)O[C@@H](C)CCCCOC1(C)CCN2CC1` [Example 47, (2S)-2-(tert-Butoxy)-2-[(22S)-16,17-difluoro-4,5,22,28-tetramethyl-21,27-dioxa-1,7,34-triazahexacyclo[26.2.2.1^6,^9.1^10,^14.0^2,^7.0^15,^20]tetratriaconta-2,4,6(34),8,10(33),11,13,15(20),16,18-decaen-3-yl]acetic acid] returned an EC50 of 7 nM.
Same read-out and setting: for `Cc1c([C@H](OC(C)(C)C)C(=O)O)c2n3cc(nc3c1CO)-c1cccc(c1)-c1c(ccc(F)c1F)O[C@@H](C)CCCCOC1(C)CCN2CC1` [Example 54, (2S)-2-(tert-Butoxy)-2-[(22S)-16,17-difluoro-5-(hydroxymethyl)-4,22,28-trimethyl-21,27-dioxa-1,7,34-triazahexacyclo[26.2.2.1^6,^9.1^10,^14.0^2,^7.0^15,^20]tetratriaconta-2,4,6(34),8,10(33),11,13,15(20),16,18-decaen-3-yl]acetic acid] the value was 4 nM.
On the same count and under the same terms, next, `Cc1c([C@H](OC(C)(C)C)C(=O)O)c2n3cc(nc3c1C(F)F)-c1cccc(c1)-c1cc(F)ccc1O[C@@H](C)CCCCOC1(C)CCN2CC1` [Example 63, (2S)-2-(tert-Butoxy)-2-[(22S)-5-(difluoromethyl)-17-fluoro-4,22,28-trimethyl-21,27-dioxa-1,7,34-triazahexacyclo[26.2.2.1^6,^9.1^10,^14.0^2,^7.0^15,^20]tetratriaconta-2,4,6(34),8,10(33),11,13,15(20),16,18-decaen-3-yl]acetic acid]: 18 nM.

The same assay, now with this note: MT-2 cells infected with NL-RLuc virus, 5 days of incubation, 10% FBS, at least 2 experiments.
Take `Cc1c([C@H](OC(C)(C)C)C(=O)O)c2n3cc(nc3c1C(C)O)-c1cccc(c1)-c1c(ccc(F)c1F)O[C@@H](C)CCCCOC1(C)CCN2CC1` (stereo partly drawn) [Example 49, (2S)-2-(tert-Butoxy)-2-[(22S)-16,17-difluoro-5-(1-hydroxyethyl)-4,22,28-trimethyl-21,27-dioxa-1,7,34-triazahexacyclo[26.2.2.1^6,^9.1^10,^14.0^2,^7.0^15,^20]tetratriaconta-2,4,6(34),8,10(33),11,13,15(20),16,18-decaen-3-yl]acetic acid]: the EC50 stood at 2 nM.
